In patent US7960376B2, “Benzo-fused heterocycles” (priority 2007, dated 2011):

Experiments:
Assay type in all cases: cell-based
[1] = target: human CB2 receptor (hCB2) (Homo sapiens, UniProt P34972); test: cell-based; conditions: intracellular cAMP, CHO-K1 cells, NKH-477 prestimulated, + agonist, − inverse agonist
[2] = target: human CB1 receptor (hCB1) (Homo sapiens, UniProt P21554); test: cAMP assay (LANCE TR-FRET) in CHO-K1 cells expressing hCB1; conditions: intracellular cAMP, NKH-477 prestimulated, + agonist, − inverse agonist
rat CB2 receptor (rCB2) = target: T1, rat CB2 receptor (rCB2) (Rattus norvegicus, UniProt Q9QZN9); test: cell-based; conditions: intracellular cAMP, CHO-K1 cells, NKH-477 prestimulated, + agonist, − inverse agonist
T1 sequence (Q9QZN9 1-360): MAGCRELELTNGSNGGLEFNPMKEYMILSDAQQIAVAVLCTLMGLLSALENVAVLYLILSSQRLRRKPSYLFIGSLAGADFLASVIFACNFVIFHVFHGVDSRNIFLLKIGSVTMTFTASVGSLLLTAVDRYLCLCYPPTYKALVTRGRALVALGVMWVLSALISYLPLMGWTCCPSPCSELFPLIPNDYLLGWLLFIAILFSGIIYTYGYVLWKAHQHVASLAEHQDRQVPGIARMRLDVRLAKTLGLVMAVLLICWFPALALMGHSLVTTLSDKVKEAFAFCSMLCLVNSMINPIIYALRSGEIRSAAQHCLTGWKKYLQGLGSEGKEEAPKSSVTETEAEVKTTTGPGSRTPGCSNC

Chain of human CB2 receptor (hCB2) (P34972 whole entry): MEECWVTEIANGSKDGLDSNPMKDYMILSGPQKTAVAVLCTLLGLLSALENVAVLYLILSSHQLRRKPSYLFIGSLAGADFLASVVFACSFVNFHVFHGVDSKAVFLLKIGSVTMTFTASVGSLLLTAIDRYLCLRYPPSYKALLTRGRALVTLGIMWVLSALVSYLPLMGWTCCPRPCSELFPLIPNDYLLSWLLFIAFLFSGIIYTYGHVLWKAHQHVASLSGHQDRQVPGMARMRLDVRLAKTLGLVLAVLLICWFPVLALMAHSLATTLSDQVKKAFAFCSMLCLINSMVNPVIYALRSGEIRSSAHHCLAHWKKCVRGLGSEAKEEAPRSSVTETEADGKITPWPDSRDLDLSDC
Chain of human CB1 receptor (hCB1) (P21554 whole entry): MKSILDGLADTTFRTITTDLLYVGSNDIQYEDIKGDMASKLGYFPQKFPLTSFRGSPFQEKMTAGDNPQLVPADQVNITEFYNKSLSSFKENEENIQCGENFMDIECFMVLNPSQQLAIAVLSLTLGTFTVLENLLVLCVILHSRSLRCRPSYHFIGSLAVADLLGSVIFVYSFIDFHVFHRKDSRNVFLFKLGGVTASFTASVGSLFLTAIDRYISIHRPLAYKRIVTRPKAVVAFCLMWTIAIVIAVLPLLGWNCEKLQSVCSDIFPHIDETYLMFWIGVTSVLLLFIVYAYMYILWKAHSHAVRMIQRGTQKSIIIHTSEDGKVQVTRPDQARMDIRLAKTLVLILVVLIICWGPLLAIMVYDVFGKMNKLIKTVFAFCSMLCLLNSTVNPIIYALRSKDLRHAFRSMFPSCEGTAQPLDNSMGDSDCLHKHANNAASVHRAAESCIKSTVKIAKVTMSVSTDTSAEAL

| Compound | hCB2 EC50 range [1] | hCB1 EC50 range [2] | rCB2 EC50 range (rat CB2 receptor (rCB2)) | further results |
| --- | --- | --- | --- | --- |
| CC(C)CNC(=O)c1ccc2c(c1)N(C(=O)c1ccc(Cl)cc1)CCS2 [Example 1, 4-(4-chlorobenzoyl)-N-isobutyl-3,4-dihydro-2H-benzo[b][1,4]thiazine-6-carboxamide] | −E | −E |  |  |
| CC(C)CNC(=O)c1ccc2c(c1)N(C(=O)c1ccccc1)CCS2 [Example 2, 4-benzoyl-N-isobutyl-3,4-dihydro-2H-benzo[b][1,4]thiazine-6-carboxamide] | −E | −E | −C |  |
| CC(C)CNC(=O)c1ccc2c(c1)N(C(=O)c1ccc(F)cc1)CCS2 [Example 3, 4-(4-fluorobenzoyl)-N-isobutyl-3,4-dihydro-2H-benzo[b][1,4] thiazine-6-carboxamide] |  | −E | −E |  |
| Cc1ccc(C(=O)N2CCSc3ccc(C(=O)NCC(C)C)cc32)cc1 [Example 4, N-isobutyl-4-(4-methylbenzoyl)-3,4-dihydro-2H-benzo[b][1,4] thiazine-6-carboxamide] | −E | −E |  |  |
| COc1ccc(C(=O)N2CCSc3ccc(C(=O)NCC(C)C)cc32)cc1 [Example 5, N-isobutyl-4-(4-meth-oxybenzoyl)-3,4-di-hydro-2H-benzo[b] [1,4]thiazine-6-carboxamide] | −E | −E | −E |  |
| CC(C)(C)NC(=O)c1ccc2c(c1)N(C(=O)c1ccc(F)cc1)CCS2 [Example 6, N-tert-butyl-4-(4-fluorobenzoyl)-3,4-dihydro-2H-benzo[b][1,4] thiazine-6-carboxamide] |  | −E | −E |  |
| COc1ccc(C(=O)N2CCSc3ccc(C(=O)NC(C)(C)C)cc32)cc1 [Example 7, N-tert-butyl-4-(4-methoxybenzoyl)-3,4-dihydro-2H-benzo[b] [1,4]thiazine-6-carboxamide] |  | −E | −E |  |
| Cc1ccc(C(=O)N2CCSc3ccc(C(=O)NC(C)(C)C)cc32)cc1 [Example 8, N-tert-butyl-4-(4-methylbenzoyl)-3,4-dihydro-2H-benzo[b][1,4]thiazine-6-carboxamide] |  | −E |  |  |
| O=C(NC1CCCC1)c1ccc2c(c1)N(C(=O)c1ccc(F)cc1)CCS2 [Example 12, N-cyclopentyl-4-(4-fluorobenzoyl)-3,4-dihydro-2H-benzo[b] [1,4]thiazine-6-carboxamide] |  | −E | −D |  |
| Cc1ccc(C(=O)N2CCSc3ccc(C(=O)NC4CCCC4)cc32)cc1 [Example 13, N-cyclopentyl-4-(4-methylbenzoyl)-3,4-dihydro-2H-benzo[b] [1,4]thiazine-6-carboxamide] |  |  |  | EC50 ([1]; read-out: hCB2 EC50 range): > 10 µM; EC50 (rat CB2 receptor (rCB2); read-out: rCB2 EC50 range): > 10 µM; EC50 ([2]; read-out: hCB1 EC50 range): > 10 µM |
| CCC(=O)N1CCSc2ccc(C(=O)NC34CC5CC(CC(C5)C3)C4)cc21 [Example 39, N-(1-adamantyl)-4-propionyl-3,4-dihydro-2H-benzo[b][1,4]thiazine-6-carboxamide] |  | −E | −E |  |
| O=C(NC12CC3CC(CC(C3)C1)C2)c1ccc2c(c1)N(S(=O)(=O)c1ccc(F)cc1)CCS2 [Example 51, N-(1-adamantyl)-4-(4-fluorophenylsulfonyl)-3,4-dihydro-2H-benzo[b][1,4]thiazine-6-carboxamide] |  | +D | −C |  |
| CN(C)C(=O)c1ccc2c(c1)N(S(=O)(=O)c1ccc(F)cc1)CCS2 [Example 69, 4-(4-fluorophenylsulfonyl)-N,N-dimethyl-3,4-dihydro-2H-benzo[b][1,4]thiazine-6-carboxamide] | +E |  | +D |  |
| CCN(CC)C(=O)c1ccc2c(c1)N(S(=O)(=O)c1ccc(F)cc1)CCS2 [Example 70, N,N-diethyl-4-(4-fluorophenylsulfonyl)-3,4-dihydro-2H-benzo[b][1,4]thiazine-6-carboxamide] | +D |  | +C |  |
| CN(C)C(=O)c1ccc2c(c1)N(S(=O)(=O)c1ccc(C(F)(F)F)cc1)CCS2 [Example 72, N,N-dimethyl-4-(4-(trifluoromethyl)phenylsulfonyl)-3,4-dihydro-2H-benzo[b][1,4]thiazine-6-carboxamide] | +C |  | +C |  |
| O=C(c1ccc2c(c1)N(S(=O)(=O)c1ccc(C(F)(F)F)cc1)CCS2)N1CCCC1 [Example 74, pyrrolidin-1-yl(4-(4-(trifluoromethyl)phenylsulfonyl)-3,4-dihydro-2H-benzo[b][1,4]thiazin-6-yl)methanone] | +E |  | −C |  |
| O=C(c1ccc2c(c1)N(S(=O)(=O)c1ccc(C(F)(F)F)cc1)CCS2)N1CCOCC1 [Example 76, morpholino(4-(4-(trifluoromethyl)phenylsulfonyl)-3,4-dihydro-2H-benzo[b][1,4]thiazin-6-yl)methanone] | +D |  | +C |  |
| O=C(NNC(=O)c1ccc2c(c1)N(S(=O)(=O)c1ccc(F)cc1)CCS2)c1ccccc1 [Example 78, N′-benzoyl-4-(4-fluorophenylsulfonyl)-3,4-dihydro-2H-benzo[b][1,4]thiazine-6-carbohydrazide] | +E |  | +D |  |
| O=C(NNC(=O)c1ccc2c(c1)N(S(=O)(=O)c1ccc(C(F)(F)F)cc1)CCS2)c1ccccc1 [Example 79, N′-benzoyl-4-(4-(trifluoromethyl)phenylsulfonyl)-3,4-dihydro-2H-benzo[b][1,4]thiazine-6-carbohydrazide] | +D |  | +D |  |
| O=S(=O)(c1ccc(C(F)(F)F)cc1)N1CCSc2ccc(-c3nc(-c4ccccn4)no3)cc21 [Example 81, 3-(pyridin-2-yl)-5-(4-(4-(trifluoromethyl)phenylsulfonyl)-3,4-dihydro-2H-benzo[b][1,4]thiazin-6-yl)-1,2,4-oxadiazole] | +B |  | +A |  |
| CCc1noc(-c2ccc3c(c2)N(S(=O)(=O)c2ccccc2)CCS3)n1 [Example 86] | +B |  | +A |  |
| CC(C)CNC(=O)c1ccc2c(c1)N(S(=O)(=O)c1ccccc1)CCC(C)(C)S2 [Example 92, N-isobutyl-2,2-dimethyl-5-(phenyl-sulfonyl)-2,3,4,5-tetrahydrobenzo[b][1,4] thiazepine-7-carboxamide] |  | −E | −E |  |
| CC1(C)CCN(S(=O)(=O)c2ccccc2)c2cc(C(=O)N3CCCCC3)ccc2S1 [Example 93, (2,2-dimethyl-5-(phenylsulfonyl)-2,3,4,5-tetrahydro-benzo[b][1,4]thiazepin-7-yl)(piperidin-1-yl)methanone] |  | −E | +C |  |
| CC1(C)CCN(S(=O)(=O)c2ccccc2)c2cc(C(=O)N3CCOCC3)ccc2S1 [Example 94, (2,2-dimethyl-5-(phenylsulfonyl)-2,3,4,5-tetrahydro-benzo[b][1,4]thiazepin-7-yl)(morpholino)-methanone] | +E |  | +D |  |
| COC(=O)[C@@H](NC(=O)c1ccc2c(c1)N(S(=O)(=O)c1ccccc1)CCC(C)(C)S2)C(C)(C)C [Example 95, (S)-methyl 2-(2,2-dimethyl-5-(phenyl-sulfonyl)-2,3,4,5-tetrahydrobenzo[b][1,4]thiazepine-7-carboxamido)-3,3-dimethylbutanoate] | +D | −D |  |  |
| CC(C)(C)CNC(=O)c1ccc2c(c1)N(S(=O)(=O)c1ccccc1)CCC(C)(C)S2 [Example 96, 2,2-dimethyl-N-neo-pentyl-5-(phenyl-sulfonyl)-2,3,4,5-tetrahydrobenzo[b][1,4] thiazepine-7-carboxamide] | +D | −D |  |  |
| C[C@@H](NC(=O)c1ccc2c(c1)N(S(=O)(=O)c1ccccc1)CCC(C)(C)S2)C(C)(C)C [Example 97, (R)-N-(3,3-dimethyl-butan-2-yl)-2,2-dimethyl-5-(phenyl-sulfonyl)-2,3,4,5-tetrahydrobenzo[b][1,4] thiazepine-7-carboxamide] | +D | −D |  |  |
| CC1(C)CCN(S(=O)(=O)c2ccc(F)cc2)c2cc(C(=O)NCC3CCOCC3)ccc2S1 [Example 99, 5-(4-fluorophenyl-sulfonyl)-2,2-dimethyl-N-((tetrahydro-2H-pyran-4-yl)methyl)-2,3,4,5-tetrahydro-benzo[b][1,4]thiazepine-7-carboxamide] |  | −E | −C |  |
| Cc1nnc(-c2ccc3c(c2)N(S(=O)(=O)c2cn(C)cn2)CCS3)o1 [Example 106, 2-methyl-5-(4-(1-methyl-1H-imidazol-4-ylsulfonyl)-3,4-dihydro-2H-benzo[b][1,4]thiazin-6-yl)-1,3,4-oxadiazole] | +E |  | +D |  |
| O=S(=O)(c1ccc(C(F)(F)F)cc1)N1CCSc2ccc(-c3ncc(-c4ccccc4)[nH]3)cc21 [Example 107, 6-(5-phenyl-1H-imidazol-2-yl)-4-(4-(trifluoromethyl)phenylsulfonyl)-3,4-dihydro-2H-benzo[b][1,4]thiazine] | +C |  | +B |  |
